Source: US20260285853A1, “COMPOUNDS AND METHODS FOR MODULATING SPLICING” (REMIX THERAPEUTICS INC., priority 2023, published 2026)
Like-named read-outs stand apart in the source and are kept apart here.

Key:
Type in all cases: cell-based
HTT mRNA [1] = assay: Splicing RT-qPCR assay (THP), Table 2A
HTT mRNA [2] = assay: Gene panel canonical junction qPCR assay, decrease in CJ mRNA, Table 3
Method in brief: (§1)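 A673 cells were plated, left to adhere for 24 h, then dosed; K562 cells were plated in 96- or 384-well format and dosed directly. Both were incubated 24 h at 37 °C with an 11-point 3-fold series (top 10 uM final). Canonical junction mRNA was then read by cDNA synthesis and qPCR.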

MYB mRNA [3] = assay: as above
Method in brief: as §1

MYB mRNA [4] = assay: Splicing RT-qPCR assay (THP), Table 2A
[5] = test system: SH-SY5Y (human neuroblastoma) cells; assay: Cell viability, Cell Titer Glo 2.0 assay; settings: read-out: Viability SHSY5Y.3 GI50
Method in brief: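 SH-SY5Y neuroblastoma cells are exposed to test compounds for 72 hours at 37 °C and 5% CO2, with final DMSO held at 0.1%. Cell viability is then measured with the CellTiter-Glo 2.0 assay.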

[6] = Table 2A (THP), AJ mRNA increase, read-out: HTT AJ (increase in alternative junction mRNA, AC50)
[7] = Table 2A (THP), CJ mRNA decrease, read-out: HTT CJ (decrease in canonical junction mRNA, IC50)
[8] = decrease in canonical junction (CJ) mRNA, gene panel qPCR, Table 3
[9] = Table 2A (THP), AJ mRNA increase, read-out: MYB AJ (increase in alternative junction mRNA, AC50)
[10] = Table 2A (THP), CJ mRNA decrease, read-out: MYB CJ (decrease in canonical junction mRNA, IC50)
[11] = Table 2A, THP, HTT alternative junction (AJ) mRNA, read-out: HTT AJ (AC50, increase in alternative junction mRNA)
[12] = Table 2A, THP, HTT canonical junction (CJ) mRNA, read-out: HTT CJ (IC50, decrease in canonical junction mRNA)
[13] = decrease in CJ mRNA levels, canonical junction qPCR, gene panel
[14] = Table 2A, THP, MYB alternative junction (AJ) mRNA, read-out: MYB AJ (AC50, increase in alternative junction mRNA)
[15] = Table 2A, THP, MYB canonical junction (CJ) mRNA, read-out: MYB CJ (IC50, decrease in canonical junction mRNA)

SMILES	IC50 (HTT mRNA [1]; [7]) [µM]	IC50 (HTT mRNA [2]; [8]) [µM]	IC50 (MYB mRNA [3]; [8]) [µM]	IC50 (MYB mRNA [4]; [10]) [µM]	GI50 [5] [µM]	IC50 (HTT mRNA [1]; [12]) [µM]	IC50 (HTT mRNA [2]; [13]) [µM]	IC50 (MYB mRNA [3]; [13]) [µM]	IC50 (MYB mRNA [4]; [15]) [µM]	AC50 (HTT mRNA [1]; [6]) [µM]	AC50 (MYB mRNA [4]; [9]) [µM]	AC50 (HTT mRNA [1]; [11]) [µM]	AC50 (MYB mRNA [4]; [14]) [µM]
COc1cc2n[nH]cc2cc1NC(=O)c1c(F)cc(N2CCC(NC3CC3)CC2)c2cn(C)nc12 [Compound 449, 4-[4-(cyclopropylamino)-1-piperidyl]-6-fluoro-N-(6-methoxy-2H-indazol-5-yl)-2-methyl-indazole-7-carboxamide]	> 10	> 10	> 10	> 10	> 10					> 10	> 10		
COc1cc2nn(C)cc2cc1NC(=O)c1c(F)cc(N2[C@@H]3CC[C@H]2C[C@H](NC2CC2)C3)c2cn(C)nc12 [Compound 429, 4-[(1S,5R)-3-(cyclopropyl-amino)-8-azabicyclo-[3.2.1]octan-8-yl]-6-fluoro-N-(6-methoxy-2-methyl-indazol-5-yl)-2-methyl-indazole-7-carboxamide]	1 to 10	1 to 10	1 to 10	1 to 10	1 to 10					> 10	1 to 10		
CCNC1CCN(c2cc(F)c(C(=O)Nc3nc4c(C)nc(C)cc4n3C)c3nn(C)cc23)CC1 [Compound 402, 4-(4-(ethylamino)-piperidin-1-yl)-6-fluoro-2-methyl-N-(1,4,6-trimethyl-1H-imidazo[4,5-c]pyridin-2-yl)-2H-indazole-7-carboxamide bis(2,2,2-trifluoroacetate)]	> 10	> 10	> 10	> 10	> 10					> 10	> 10		
CCNC1CCN(c2ccc(C(=O)Nc3cc(OCc4ccccc4)c4nc(C)cn4c3)c3nn(C)cc23)CC1 [Compound 324, N-(8-benzyloxy-2-methylimidazo[1,2-a]pyridin-6-yl)-4-[4-(ethylamino)-1-piperidyl]-2-methyl-indazole-7-carboxamide]	> 10	> 10	1 to 10	1 to 10	1 to 10					> 10	0.1 to 1		
C[C@H]1CN(c2ccc(C(=O)Nc3cc(F)c4nn(C)cc4c3)c3sc(OCC4CCNC4)nc23)C[C@H](C)N1 (stereo partly drawn) [Compound 797, 4-((3S,5S)-3,5-dimethylpiperazin-1-yl)-N-(7-fluoro-2-methyl-2H-indazol-5-yl)-2-(pyrrolidin-3-ylmethoxy)benzo[d]thiazole-7-carboxamide bis(2,2,2-trifluoroacetate)]					> 10	> 10	> 10	> 10	> 10			> 10	> 10
Cc1cn2cc(NC(=O)c3ccc(N4CCC(NC5CC5)CC4)c4cn(C)nc34)nc2c(CNc2nccs2)n1 [Compound 860]					1 to 10	> 10	> 10	> 10	> 10			> 10	> 10
Cc1cn2cc(NC(=O)c3ccc(N4CCC(NC5CC5)CC4)c4cn(C)nc34)nc2c(-c2cnn[nH]2)n1 [Compound 579, 4-(4-(cyclopropylamino)piper-idin-1-yl)-2-methyl-N-(6-methyl-8-(1H-1,2,3-triazol-5-yl)-imidazo[1,2-a]pyrazin-2-yl)-2H-indazole-7-carbox-amide 2,2,2-trifluoroacetate]	> 10	> 10	> 10	> 10	> 10					> 10	> 10		
COc1c(NC(=O)c2c(F)cc(N3CCC(NC4CC4)CC3)c3cn(C)nc23)cn2cc(C)nc(C)c12 [Compound 419, 4-[4-(cyclopropylamino)-1-piperidyl]-6-fluoro-N-(8-methoxy-1,3-dimethyl-pyrrolo[1,2-a]pyrazin-7-yl)-2-methyl-indazole-7-carboxamide]	> 10	> 10	1 to 10	1 to 10	1 to 10					> 10	1 to 10		
COc1cc2nn(C)cc2cc1NC(=O)c1c(N)cc(N2CCC(NC3CC3)CC2)c2cn(C)nc12 [Compound 450, 6-amino-4-[4-(cyclopropylamino)-1-piperidyl]-N-(6-methoxy-2-methyl-indazol-5-yl)-2-methyl-indazole-7-carboxamide]	> 10	> 10	> 10	> 10	1 to 10					> 10	> 10		
COc1cc2nn(C)cc2cc1NC(=O)c1ccc(N2CC3(CNCCO3)C2)c2cn(C)nc12 [Compound 508]	> 10	> 10	> 10	> 10	1 to 10					> 10	1 to 10		

Continued, in another order:

IC50 (HTT mRNA [1]; [7]) [µM]	IC50 (HTT mRNA [2]; [8]) [µM]	IC50 (MYB mRNA [3]; [8]) [µM]	IC50 (MYB mRNA [4]; [10]) [µM]	GI50 [5] [µM]	IC50 (HTT mRNA [1]; [12]) [µM]	IC50 (HTT mRNA [2]; [13]) [µM]	IC50 (MYB mRNA [3]; [13]) [µM]	IC50 (MYB mRNA [4]; [15]) [µM]	SMILES	AC50 (HTT mRNA [1]; [6]) [µM]	AC50 (MYB mRNA [4]; [9]) [µM]	AC50 (HTT mRNA [1]; [11]) [µM]	AC50 (MYB mRNA [4]; [14]) [µM]
0.1 to 1	0.1 to 1	0.1 to 1	0.1 to 1	0.1 to 1					Cc1cn2cc(NC(=O)c3ccc(N4CC[C@H]5CNCC[C@H]54)c4cn(C)nc34)nc2c(C)n1 (stereo in doubt) [Compound 502]	0.1 to 1	0.1 to 1		
> 10	> 10	> 10	> 10	1 to 10					Cc1cn2cc(NC(=O)c3ccc(N4CC5(CNCCO5)C4)c4cn(C)nc34)nc2c(C)n1 [Compound 497]	> 10	> 10		
				1 to 10	> 10	> 10	1 to 10	1 to 10	COc1nc2c(C(=O)Nc3cn4ccnc4c(F)c3OC)ccc(N3C[C@H](C)N[C@@H](C)C3)c2s1 [Compound 799]			> 10	1 to 10
1 to 10	1 to 10	0.1 to 1	0.1 to 1	1 to 10					Cn1cc2c(N3CCC(NC4CC4)CC3)cc(F)c(C(=O)Nc3cc4cn(C)nc4n(C)c3=O)c2n1 [Compound 426, 4-[4-(cyclopropylamino)-1-piperidy1]-N-(2,7-dimethyl-6-oxo-pyrazolo[3,4-b]pyridin-5-y1)-6-fluoro-2-methyl-indazole-7-carboxamide]	1 to 10	0.1 to 1		
> 10	> 10	1 to 10	1 to 10	1 to 10					COc1cc2nn(C)cc2cc1NC(=O)c1ccc(N2CCC3(CCCN3)C2)c2cn(C)nc12 (centres unmarked) [Compound 512]	> 10	0.1 to 1		
				1 to 10	1 to 10	1 to 10	1 to 10	1 to 10	COc1nc2c(C(=O)Nc3cc4c(C)nc(C)cn4n3)ccc(N3C[C@H](C)N[C@@H](C)C3)c2s1 [Compound 710, 7-[(3S,5S)-3,5-dimethylpiperazin-1-yl]-N-(4,6-dimethylpyrazolo[1,5-a]pyrazin-2-yl)-2-methoxy-1,3-benzothiazole-4-carboxamide]			1 to 10	1 to 10
0.1 to 1	0.1 to 1	0.1 to 1	0.1 to 1	0.1 to 1					COc1cc2nn(C)cc2cc1NC(=O)c1ccc(N2CCC(NC3CC3)CC2)c2cc(CO)nn12 [Compound 443, 4-(4-(cyclopropylamino)piperidin-1-yl)-2-(hydroxymethyl)-N-(6-methoxy-2-methyl-2H-indazol-5-yl)pyrazolo[1,5-a]pyridine-7-carboxamide 2,2,2-trifluoroacetate]	0.1 to 1	< 0.1		
